According to US20240110004A1 (Northwestern University, priority 2022, published 2024):
Where no end group is shown, it is not given here.

How the values were obtained:
[1] = target: T1, interaction between VCP and mtHtt (Homo sapiens, UniProt P55072); experiment: VCP binding assay: association of VCP to mtHtt by immunoprecipitation and western blot in HEK293 cells; assay type: cell-based; conditions: HEK293 cells co-transfected with GFP-VCP and myc-Q73 FL, 3 μM, three doses
T1 construct: GFP; expressed in transfected cells; host or cells: HEK293
T1 sequence (P55072 whole entry): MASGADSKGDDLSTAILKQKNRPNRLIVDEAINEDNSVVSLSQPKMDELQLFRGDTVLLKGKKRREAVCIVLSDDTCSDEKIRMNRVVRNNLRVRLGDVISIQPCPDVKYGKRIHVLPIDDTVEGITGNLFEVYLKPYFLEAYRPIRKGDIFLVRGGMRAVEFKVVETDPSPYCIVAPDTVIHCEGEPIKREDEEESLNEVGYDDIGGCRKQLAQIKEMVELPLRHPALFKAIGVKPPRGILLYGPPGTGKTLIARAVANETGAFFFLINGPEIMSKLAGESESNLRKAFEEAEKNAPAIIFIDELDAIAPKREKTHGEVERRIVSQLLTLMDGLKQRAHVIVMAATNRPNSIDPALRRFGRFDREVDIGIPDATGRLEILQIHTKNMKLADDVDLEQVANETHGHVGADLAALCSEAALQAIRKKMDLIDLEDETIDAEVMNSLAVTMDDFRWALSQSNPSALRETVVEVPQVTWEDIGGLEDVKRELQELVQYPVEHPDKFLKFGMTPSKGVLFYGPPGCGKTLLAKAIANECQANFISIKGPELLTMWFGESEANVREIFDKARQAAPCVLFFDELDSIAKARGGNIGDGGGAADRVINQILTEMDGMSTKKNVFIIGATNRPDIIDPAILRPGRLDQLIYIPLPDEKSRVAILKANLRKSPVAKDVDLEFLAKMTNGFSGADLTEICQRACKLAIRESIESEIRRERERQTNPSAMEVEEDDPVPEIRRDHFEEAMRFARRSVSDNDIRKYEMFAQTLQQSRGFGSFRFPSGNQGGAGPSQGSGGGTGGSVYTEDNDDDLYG
Experimental: Therefore, target engagement protein binding assays were conducted. HEK293 cells were cultured and plated one day before treatment. Cells were pre-treated with HV3-TAT or PLPs at 3 μM for 2 h. Cells were then co-transfected with GFP-VCP and myc-Q73 FL plasmids. Cells were treated with a second dose of peptide or PLPs 6 hours after transfection, and a final third dose of peptide or PLPs treatment was administered 24 hours after transfection. Cell total lysate was harvested 48 hours after transfection, and to confirm binding of PLPs to VCP in cells, association of VCP to mtHtt was quantified by immunoprecipitation (IP) followed by western blot upon treatment of HV3-TAT peptide and PLPs.

[2] = test system: HdhQ111 cells; experiment: Mitochondrial fragmentation assay; assay type: cell-based, mouse; conditions: compared to vehicle treatment group, at least 100 cells per group
Experimental: FIG. 8: Mitochondrial fragmentation assay. The percentage of HdhQ111 cells with fragmented mitochondria relative to the total number of cells was quantitated. At least 100 cells per group were counted.
FIG. 9: Mitochondrial fragmentation assay. Mitochondrial morphology was determined by staining cells with anti-Tom20 antibody. Nuclei: Hoechst 33342 stain. […] Scale Bars: 60 μm; 12 μm for inset.
Mitochondrial Fragmentation Methods: As preventing the fragmentation of the mitochondria is important for maintaining the health of striatal cells in the HD in vitro model, the PLP's abilities were tested in this regard.

[3] = test system: HdhQ111 cells; experiment: Cell viability (cell rescue) of serum-starved HdhQ111 cells; assay type: cell-based, mouse; conditions: 3 μM with respect to peptide, once a day for 3 days; compared to the vehicle control
Experimental: FIG. 3A: Cell viability of HV3-TAT peptide and PLPs. Compounds treated to the HdhQ111 cells once a day for 3 days. Concentration was 3 μM with respect to peptide. FIG. 3B: VCP binding assay results for HV3-TAT, P1, P2, and P4.
Cell Viability Methods: In vitro assays were carried out to examine the bioactivity of the PLPs, P1, P2, P3, and P4 and to compare against the known, active HV3-TAT. […] HdhQ111 cells were immortalized from knock-in mice carrying 111 CAG repeats in the mouse Htt gene.
To verify that the PLPs retain bioactivity after being exposed to enzymes or serum treatments, the viability of HD mouse mutant striatal HdhQ111 cells was assessed following treatment with HV3-TAT and P1. […] Cells were maintained at 33° C. and 5% CO2 with a relative humidity of 95%. HdQ111 cells were plated in 96-well plates at a density of 5000 per well and then left to attach for 24 h. Cells were treated with HV3-TAT or PLPs at 3 μM with respect to peptide once a day, for 3 days. The medium was replaced every day. After 72 h, cells were washed 3 times with PBS buffer. At this point, 20 μL of CTB reagent in 80 uL of medium was added, and the cells incubated for 3 hours at 37° C. Fluorescence was measured at 590 nm with excitation at 560 nm using a Perkin Elmer EnSpire plate reader. The average background fluorescence of CTB in media without cells was subtracted from the average fluorescence readings of the experimental wells. Viability was calculated as the average background-subtracted signal in a well compared to that of a negative control well (treatment with vehicle or media). Three replicates were performed for each independent sample. 10% DMSO was used as a positive control and untreated cells in complete medium as a negative control. Viability is reported as a percentage of untreated cells.

[4] = Dulbecco's modified Eagle medium (DMEM) supplemented with 25% fetal bovine serum (FBS); conditions: 37° C.
[5] = enzymes (0.1 μM) in DPBS (pH 7.4) or hydrochloric acid solution (pH 2); conditions: 37° C.
[6] = test system: pepsin; experiment: pepsin; conditions: 37° C., up to 450 min
[7] = Dulbecco's modified Eagle medium (DMEM) supplemented with 10% fetal bovine serum (FBS); conditions: 37° C.
[8] = mouse, in vivo
[9] = test system: HdhQ111 cells; experiment: Mitochondrial localization in live HdhQ111 cells; assay type: cell-based, mouse; conditions: 3 μM, Mitotracker staining
Experimental: FIG. 7: Mitochondrial localization in live HdhQ111 cells. HdhQ111 cells were treated with HV3-TAT-Rho peptide, P1-Rho, and rhodamine dye alone at a concentration of 3 μM. Yellow (i.e., “localization” in FIG. 7) indicates colocalization of green and red channels, signifying localization to the mitochondria. Mitochondria: Mitotracker Green FM (green channel). Material: Rhodamine (red channel). Nuclei: Hoechst 33342 stain (blue channel). Scale Bars: 60 μm; 12 μm for inset.
Mitochondrial Localization Methods: A decisive pathologic hallmark for HdhQ111 cells is mitochondrial fragmentation. Since the mitochondrial membrane is the specific intracellular target location for the designed system, mitochondrial localization of P1-Rho in HdhQ111 cells was evaluated. To visualize mitochondrial localization, the mitochondria were stained with Mito Tracker.

[10] = test system: HdhQ111 cells; experiment: Cell uptake by confocal microscopy and flow cytometry; assay type: cell-based, mouse; conditions: compared to the HV3-TAT-Rho peptide and rhodamine dye control
Experimental: Scale bars: 60 μm; 12 μm for inset. Cell Membrane: wheat germ agglutinin-Alexa 488 (green channel). Material: Rhodamine (red channel). Nuclei: Hoechst 33342 stain (blue channel).
Cell Uptake Methods: A major drawback for most peptide-based drugs is poor innate cell membrane permeability, such that many peptide-based drugs fail to reach their putative intracellular targets. Cellular uptake was evaluated by confocal microscopy and flow cytometry using a rhodamine dye labeled version of HV3-TAT (HV3-TAT-Rho) and a rhodamine labeled version of P1 (P1-Rho, e.g., as shown in FIG. 28A). FIG. 28B provides the relative fluorescent intensities of rhodamine alone, HV3-TAT-Rho, and P1-Rho—rhodamine showing near 1:1 addition of dye on to compounds.

[11] = test system: HdhQ111 cells; experiment: Accumulation assay, flow cytometry 2 and 7 days after a single treatment; assay type: cell-based, mouse; conditions: two and seven days after one treatment

## P4: PLP homopolymer having peptide side chains of SEQ ID: 4 (HVLVMSATKKKK) (HVLVMSATKKKK-NH2; not fully specified (N-terminus); also: side chains of polynorbornene homopolymer (PLP))
[1]
  association of VCP to mtHtt (VCP binding): exhibited evidence for binding
[2]
  fragmented mitochondria: significantly fewer fragmented mitochondria
[3]
  cell viability: higher significance than P3

## PLP homopolymer having peptide side chains of SEQ ID: 1 (HVLVMSATRR)
[4]
  not cleaved: stability of P1 seen with serum treatments
[5]
  not cleaved: maintained molecular weight running together with the untreated P1 control
[6]
  not cleaved: no cleavage observed for up to 450 min
[7]
  not cleaved: stability of P1 seen with serum treatments

## P1-Gd: P1 PLP terminated with the Gd-DOTA terminating agent (contrast agent tag) for ICPMS quantification (HVLVMSATRR-NH2; not fully specified (N-terminus); also: side chains of polynorbornene homopolymer (PLP, ROMP), Gd-DOTA terminating agent on polymer terminus)
[8]
  biodistribution, main organs: majority of the compound injected ends up in the liver and kidney
  detection in the CNS: detectable in the CNS
  increase in half-life compared to the HV3-TAT peptide: 3000 fold
[8]; iv, 10 mg/kg
  distribution half-life: 0.333 h
  elimination half-life: 152 h

## P1-Rho: rhodamine labeled version of P1 (HVLVMSATRR-NH2; not fully specified (N-terminus); also: side chains of polynorbornene homopolymer (PLP), rhodamine label (site not given here))
[9]
  mitochondrial localization: exhibited overlapping signals with mitochondria
[10]
  cell association by flow cytometry: significantly better cell association
[11]
  presence of compound in cells after one initial treatment: detected

## P2: PLP homopolymer having peptide side chains of SEQ ID: 2 (HVLVMSATKK) (HVLVMSATKK-NH2; not fully specified (N-terminus); also: side chains of polynorbornene homopolymer (PLP))
[3]
  cell viability: higher significance than P3
